The conditions of this data set: Liquid.

± gives the expanded uncertainty stated by the source.

Take `COC(C)=O` [methyl ethanoate]: the vapor or sublimation pressure – broadly, the equilibrium pressure above the liquid or solid – (329.97 K) is given as 101.3 ± 0.86 kPa. With `CO` [methanol], the “vapor or sublimation pressure” value (337.57 K) is listed as 101.3 ± 0.86 kPa.

The values above are taken from the NIST ThermoML archive (doi:10.1021/je100932m).
